Active and inactive are the calls of the source. The rule behind the calls is not given here.
Columns and labels:
[1] = molecular target: Transient receptor potential cation channel subfamily A member 1 (Homo sapiens, UniProt O75762); assay: Antagonist activity at recombinant human TRPA1 expressed in HEK293F cells assessed as reduction in AITC-induced increase in intracellular Ca2+ level by FLIPR-based Ca2+ assay; format: cell-based; conditions: filed as antagonist
[2] = Drug concentration in rat at 20.7 mg/kg, po measured after 60 mins; format: ADME, organism-based; conditions: in vivo, read-out: Drug uptake
[3] = molecular target: T1, Transient receptor potential cation channel subfamily V member 3 (Homo sapiens) (UniProt Q8NET8); assay: Antagonist activity at endogenous TRPV3 in human epithelial cells assessed as inhibition of 2APB-induced TRPV3 channel activation by FLIPR-based Ca2+ assay relative to control; conditions: Epithelial cell, concentration not given here
T1 sequence (whole entry): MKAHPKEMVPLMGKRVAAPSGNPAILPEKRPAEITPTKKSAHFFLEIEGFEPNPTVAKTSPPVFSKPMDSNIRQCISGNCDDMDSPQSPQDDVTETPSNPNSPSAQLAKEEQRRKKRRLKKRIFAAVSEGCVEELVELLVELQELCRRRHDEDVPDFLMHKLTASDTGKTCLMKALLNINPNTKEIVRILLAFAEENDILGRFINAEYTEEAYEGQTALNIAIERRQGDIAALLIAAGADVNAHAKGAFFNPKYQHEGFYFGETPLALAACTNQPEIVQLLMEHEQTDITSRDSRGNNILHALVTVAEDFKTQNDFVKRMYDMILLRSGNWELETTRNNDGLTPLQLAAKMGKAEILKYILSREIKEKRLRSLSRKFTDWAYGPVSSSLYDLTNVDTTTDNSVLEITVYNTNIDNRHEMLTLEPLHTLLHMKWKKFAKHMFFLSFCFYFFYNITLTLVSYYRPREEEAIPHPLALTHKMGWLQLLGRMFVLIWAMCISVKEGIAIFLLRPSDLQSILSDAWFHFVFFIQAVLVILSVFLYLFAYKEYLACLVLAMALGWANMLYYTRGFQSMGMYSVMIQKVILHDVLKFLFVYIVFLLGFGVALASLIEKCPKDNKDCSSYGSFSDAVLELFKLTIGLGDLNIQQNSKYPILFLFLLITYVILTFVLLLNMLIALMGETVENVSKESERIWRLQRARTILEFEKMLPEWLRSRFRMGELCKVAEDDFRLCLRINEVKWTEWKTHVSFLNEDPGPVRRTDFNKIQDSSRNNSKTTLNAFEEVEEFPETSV

[4] = molecular target: T1, Transient receptor potential cation channel subfamily V member 3 (Homo sapiens); assay: Activation of endogenous TRPV3 in human epithelial cells upto 100 micromol/L; format: cell-based; conditions: Epithelial cell, dose <= 100.0 µmol/L
[5] = Chemical reactivity of compound to 13C-labelled La antigen by ALARM NMR spectroscopic analysis; format: physicochemical
[6] = Tmax in rat at 2 mg/kg, po; format: ADME, organism-based; conditions: in vivo
[7] = Aqueous solubility of compound; format: physicochemical; conditions: buffer
[8] = Toxicity in Sprague-Dawley rat assessed as effect on heart rate; conditions: in vivo
[9] = molecular target: Transient receptor potential cation channel subfamily A member 1 (Rattus norvegicus) (UniProt Q6RI86); assay: Antagonist activity at endogenous TRPA1 in rat DRG neurons assessed as blockade of AITC-induced CGRP release at 5 micromol/L; format: cell-based; conditions: DRG neuron, filed as antagonist, dose 5.0 µmol/L
Sequence of Transient receptor potential cation channel subfamily A member 1 (Rattus norvegicus) (Q6RI86 whole entry): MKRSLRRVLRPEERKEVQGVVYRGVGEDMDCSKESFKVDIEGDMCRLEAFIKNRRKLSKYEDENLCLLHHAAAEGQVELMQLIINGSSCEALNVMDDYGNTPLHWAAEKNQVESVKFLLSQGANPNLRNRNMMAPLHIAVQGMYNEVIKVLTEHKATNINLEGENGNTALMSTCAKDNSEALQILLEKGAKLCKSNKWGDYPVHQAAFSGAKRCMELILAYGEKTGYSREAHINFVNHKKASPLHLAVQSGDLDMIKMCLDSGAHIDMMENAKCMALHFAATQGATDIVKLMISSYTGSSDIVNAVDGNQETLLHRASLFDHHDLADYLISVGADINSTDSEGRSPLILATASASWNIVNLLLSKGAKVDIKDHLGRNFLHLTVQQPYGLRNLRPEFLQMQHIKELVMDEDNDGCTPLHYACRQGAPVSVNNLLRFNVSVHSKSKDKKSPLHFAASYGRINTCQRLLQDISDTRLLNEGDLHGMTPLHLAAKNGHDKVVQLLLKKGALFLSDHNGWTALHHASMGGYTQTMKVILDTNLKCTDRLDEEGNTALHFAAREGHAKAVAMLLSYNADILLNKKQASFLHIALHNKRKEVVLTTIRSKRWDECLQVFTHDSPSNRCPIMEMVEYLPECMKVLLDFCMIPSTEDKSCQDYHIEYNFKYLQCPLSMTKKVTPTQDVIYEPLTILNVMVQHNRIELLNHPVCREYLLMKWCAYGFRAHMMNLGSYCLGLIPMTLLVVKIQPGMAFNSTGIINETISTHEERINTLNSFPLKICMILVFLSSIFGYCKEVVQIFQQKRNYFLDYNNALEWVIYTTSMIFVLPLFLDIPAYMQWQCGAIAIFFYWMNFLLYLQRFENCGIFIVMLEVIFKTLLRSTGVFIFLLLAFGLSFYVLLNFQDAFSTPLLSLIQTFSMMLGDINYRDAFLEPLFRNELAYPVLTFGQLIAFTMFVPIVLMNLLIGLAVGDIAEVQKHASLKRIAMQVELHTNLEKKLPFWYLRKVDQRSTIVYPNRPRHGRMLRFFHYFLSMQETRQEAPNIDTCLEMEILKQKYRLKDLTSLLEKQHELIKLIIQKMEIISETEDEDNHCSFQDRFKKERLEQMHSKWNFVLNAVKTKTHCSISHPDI

[10] = tested on: Rattus norvegicus; assay: Antiallodynic activity in CCI-induced neuropathic pain Sprague-Dawley rat model assessed as attenuation of mechanical allodynia at 6.2 to 62.1 mg/kg, po administered with compound for 1 hrs and measured 10 to 14 days after surgery; format: functional, organism-based; conditions: dose 6.2-62.1 mg/kg, time 241-337 hrs
[11] = molecular target: Melatonin receptor type 1A (Homo sapiens) (UniProt P48039); assay: Inhibition of MT1 receptor (unknown origin) at 10 micromol/L by radioligand binding assay; conditions: dose 10.0 µmol/L
Sequence of Melatonin receptor type 1A (Homo sapiens) (P48039 whole entry): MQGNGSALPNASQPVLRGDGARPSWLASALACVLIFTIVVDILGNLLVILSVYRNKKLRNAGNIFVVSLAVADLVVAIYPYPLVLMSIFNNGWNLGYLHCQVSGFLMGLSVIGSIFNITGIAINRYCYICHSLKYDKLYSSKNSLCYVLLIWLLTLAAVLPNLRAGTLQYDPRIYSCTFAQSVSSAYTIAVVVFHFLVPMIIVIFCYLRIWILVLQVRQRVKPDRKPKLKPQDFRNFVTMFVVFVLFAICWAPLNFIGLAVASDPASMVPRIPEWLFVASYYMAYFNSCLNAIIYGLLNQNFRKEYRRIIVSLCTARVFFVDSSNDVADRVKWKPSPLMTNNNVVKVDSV

Sequence of Transient receptor potential cation channel subfamily A member 1 (O75762 whole entry): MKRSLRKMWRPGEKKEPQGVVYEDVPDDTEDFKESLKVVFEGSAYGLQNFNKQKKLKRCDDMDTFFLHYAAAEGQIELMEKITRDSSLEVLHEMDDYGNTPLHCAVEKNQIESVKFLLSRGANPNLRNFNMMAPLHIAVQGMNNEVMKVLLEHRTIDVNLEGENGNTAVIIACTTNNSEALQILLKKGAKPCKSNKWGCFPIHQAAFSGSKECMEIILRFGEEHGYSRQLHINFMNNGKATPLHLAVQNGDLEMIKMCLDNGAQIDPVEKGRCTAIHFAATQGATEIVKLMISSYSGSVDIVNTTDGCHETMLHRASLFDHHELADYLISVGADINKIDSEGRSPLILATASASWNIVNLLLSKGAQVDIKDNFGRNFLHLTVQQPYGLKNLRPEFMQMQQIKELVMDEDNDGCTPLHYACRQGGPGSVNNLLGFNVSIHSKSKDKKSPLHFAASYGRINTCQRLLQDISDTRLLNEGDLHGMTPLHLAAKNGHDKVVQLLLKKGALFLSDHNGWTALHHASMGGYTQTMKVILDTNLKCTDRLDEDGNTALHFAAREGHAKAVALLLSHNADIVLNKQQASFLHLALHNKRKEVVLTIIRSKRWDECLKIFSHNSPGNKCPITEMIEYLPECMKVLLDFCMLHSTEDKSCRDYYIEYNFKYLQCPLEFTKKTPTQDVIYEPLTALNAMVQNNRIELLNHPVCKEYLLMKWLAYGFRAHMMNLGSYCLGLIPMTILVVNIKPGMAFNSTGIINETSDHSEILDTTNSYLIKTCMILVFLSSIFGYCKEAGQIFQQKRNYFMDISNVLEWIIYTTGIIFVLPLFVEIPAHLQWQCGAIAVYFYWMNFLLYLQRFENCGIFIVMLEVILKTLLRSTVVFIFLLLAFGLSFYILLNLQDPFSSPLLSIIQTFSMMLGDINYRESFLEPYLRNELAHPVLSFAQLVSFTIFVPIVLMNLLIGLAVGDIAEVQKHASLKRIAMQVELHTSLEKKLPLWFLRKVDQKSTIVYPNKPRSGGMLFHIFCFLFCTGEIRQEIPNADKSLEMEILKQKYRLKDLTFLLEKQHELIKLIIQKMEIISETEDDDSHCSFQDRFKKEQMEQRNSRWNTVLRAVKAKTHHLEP

For CCC(=N\O)/C(C)=C/c1ccc(F)cc1 [A-079], the Activity [1] was “Dose-Dependent Effect”, the concentration at 1 h [2] was 6.22 µM and the inhibition [3] was under 20%. For the same compound, the Activity [4] was “inactive”, the Stability [5] was “Stable” and the Tmax [6] was 30 min. The solubility [7] was over 300 µM, the Activity [8] was “Non-Toxic” and the Activity [9] was “Active”. For the same compound, the Activity [10] was “inactive” and the inhibition [11] was 31%.
